How the values were obtained:
[1] = test system: spontaneously hypertensive male rats, strain MHS; test: Anti-hypertensive activity in the spontaneously hypertensive rat (MHS): blood pressure and heart rate at the tail; format: in vivo
Protocol: 1. Spontaneously Hypertensive Rat (MHS)
Four spontaneously hypertensive male rats, strain MHS, weight 250 to 300 g for each group were used. The animals were treated for four consecutive days. The drugs were administered by gastric gavage while suspended in 5% arabic gum (0.2 ml/100 g body weight), and blood pressure (BP) and heart rate (HR) were measured at the tail by BP Recorder W+W. Blood pressure and heart rate were measured on the first and fourth day of treatment 1 hour before and 1 and 5 hours after drug administration.

normotensive rats = test: Blood pressure and heart rate in the conscious normotensive rat (NR); format: in vivo; settings: 5 mg/kg os
Protocol: Blood pressure recordings have been made in conscious normotensive unrestrained rats weighing approximately 300 g, via a catheter chronically inserted into the left common carotid artery. Implantation of arterial cannula was made under sodium pentobarbital anesthesia (50 mg/kp i.p.) A 1 cm long incision was made through the previously shaved ventral surface of the neck and the tissues overlying the trachea parted by blunt dissection to reveal the carotid artery. The polyethylene catheter used was made with PE 50 tubing, previously filled with saline containing 250 I.U./ml heparin. The tip of the cannula was pushed at least 2 cm inside the vessel toward the heart. The cannula was then firmly tied and passed beneath the skin to emerge from a small incision in the back of the neck. During the post-operative period and before the start of each recording session, the cannula was flushed through daily with saline containing heparin (250 I.U./ml). The experiments were performed two days after surgery. Drugs were administered by gastric gavage.

[2] = Acute toxicity (LD50) in mice; format: in vivo, mouse; settings: mouse, in vivo; male mice; oral; observed for seven days
Excerpt: Evaluation of the Toxicity (LD50)
Ten male mice for each group were orally treated with drugs at different dose levels for the determination of lethal dose 50 (LD50).

Row | SMILES | Change in BP, 1 hr after dose, first day ([1]; 5 mg/kg os) | Change in BP, 5 hrs after dose, first day ([1]; 5 mg/kg os) | Change in BP, 1 hr after dose, fourth day ([1]; 5 mg/kg os) | Change in BP, 5 hrs after dose, fourth day ([1]; 5 mg/kg os) | Change in BP, 1 hr after dose, first day ([1]; 2 mg/kg os) | Change in HR, 1 hr after dose, first day ([1]; 2 mg/kg os) | Change in HR, 5 hr after dose, first day ([1]; 2 mg/kg os) | Change in BP, 5 hrs after dose, first day ([1]; 2 mg/kg os) | Change in BP, 1 hr after dose, fourth day ([1]; 2 mg/kg os) | Change in HR, 1 hr after dose, fourth day ([1]; 2 mg/kg os) | Change in HR, 5 hr after dose, fourth day ([1]; 2 mg/kg os) | Change in BP, 5 hrs after dose, fourth day ([1]; 2 mg/kg os) | Change in HR, 1 hr after dose, first day ([1]; 5 mg/kg os) | Change in HR, 5 hr after dose, first day ([1]; 5 mg/kg os) | Change in HR, 1 hr after dose, fourth day ([1]; 5 mg/kg os) | Change in HR, 5 hr after dose, fourth day ([1]; 5 mg/kg os) | Change in Blood Pressure after Treatment, 30' (normotensive rats) | Change in heart rate after treatment, 30' (normotensive rats) | Change in Blood Pressure after Treatment, 60' (normotensive rats) | Change in heart rate after treatment, 60' (normotensive rats) | further results
1 | N#CC(CC1CC2c3cccc4[nH]cc(c34)CC2N(CC2CC2)C1)C(N)=O (stereo not drawn) [355/1323, 2-Cyano-3-(6'-methylcyclopropylergoline-8'β)-propionamide] | -15 mm Hg | -20 mm Hg | -20 mm Hg | -30 mm Hg |  |  |  |  |  |  |  |  |  |  |  |  |  |  |  |  | 
2 | CCNC(=O)C(C#N)CC1CC2c3cccc4[nH]cc(c34)CC2N(CC2CC2)C1 (stereo not drawn) [355/1324, 2-Cyano-3-(6'-methylcyclopropylergoline-8β)-N-ethylpropionamide] | -20 mm Hg | -40 mm Hg | -40 mm Hg | -35 mm Hg |  |  |  |  |  |  |  |  |  |  |  |  |  |  |  |  | 
3 | CC(C)N1C[C@H](CC(C#N)C(N)=O)C[C@@H]2c3cccc4[nH]cc(c34)C[C@H]21 (stereo partly drawn) [Example 37, 2-Cyano-3-(6'-isopropylergoline-8'β)-propionamide] | -30 mm Hg | -25 mm Hg | -45 mm Hg | -35 mm Hg |  |  |  |  |  |  |  |  |  |  |  |  |  |  |  |  | 
4 | CCNC(=O)C(C#N)C[C@@H]1C[C@@H]2c3cccc4[nH]cc(c34)C[C@H]2N(C(C)C)C1 (stereo partly drawn) [Example 38, 2-Cyano-3-(6'-isopropylergoline-8'β)-N-ethyl propionamide] | -20 mm Hg | -10 mm Hg | -32 mm Hg | -28 mm Hg |  |  |  |  |  |  |  |  |  |  |  |  |  |  |  |  | 
5 | CN1C[C@H](CC(C#N)C(=O)NCc2ccccc2)C[C@@H]2c3cccc4[nH]cc(c34)C[C@H]21 (stereo partly drawn) [Example 1131, 2-Cyano-3-(6'-methylergoline-8'β)-N-benzylpropionamide] | -48 mm Hg | -43 mm Hg | -17 mm Hg | -16 mm Hg | -26 mm Hg | -20 b/min | +5 b/min | -9 mm Hg | -22 mm Hg | -55 b/min | +5 b/min | -25 mm Hg | -18 b/min | +10 b/min | +18 b/min | -8 b/min | -22 mm Hg | -20 b/min | -22 mm Hg | -30 b/min | Change in Blood Pressure after Treatment, 120' (normotensive rats): -23 mm Hg; Change in heart rate after treatment, 120' (normotensive rats): -20 b/min; Change in Blood Pressure after Treatment, 180' (normotensive rats): -20 mm Hg; Change in heart rate after treatment, 180' (normotensive rats): -20 b/min; Change in Blood Pressure after Treatment, 240' (normotensive rats): -19 mm Hg; Change in heart rate after treatment, 240' (normotensive rats): -10 b/min; Change in Blood Pressure after Treatment, 360' (normotensive rats): -10 mm Hg; Change in heart rate after treatment, 360' (normotensive rats): +10 b/min; Change in Blood Pressure after Treatment, 24h (normotensive rats): 0 mm Hg; Change in heart rate after treatment, 24h (normotensive rats): +10 b/min; LD50 at 168 h [2]: > 1000 mg/kg
6 | CN1C[C@H](CC(C#N)C(=O)N2CCCC2)C[C@@H]2c3cccc4[nH]cc(c34)C[C@H]21 (stereo partly drawn) [Example 1133, 2-Cyano-3-(6'-methylergoline-8'β)-N-propionyl-pyrrolidine] | -24 mm Hg | -9 mm Hg | -42 mm Hg | -25 mm Hg | -20 mm Hg | -33 b/min | -28 b/min | -11 mm Hg | -21 mm Hg | -20 b/min | -3 b/min | -10 mm Hg | 0 b/min | +13 b/min | -13 b/min | -8 b/min | -15 mm Hg | -25 b/min | -20 mm Hg | -45 b/min | Change in Blood Pressure after Treatment, 120' (normotensive rats): -15 mm Hg; Change in heart rate after treatment, 120' (normotensive rats): -40 b/min; Change in Blood Pressure after Treatment, 180' (normotensive rats): -10 mm Hg; Change in heart rate after treatment, 180' (normotensive rats): -40 b/min; Change in Blood Pressure after Treatment, 240' (normotensive rats): -9 mm Hg; Change in heart rate after treatment, 240' (normotensive rats): -10 b/min; Change in Blood Pressure after Treatment, 360' (normotensive rats): 0 mm Hg; Change in heart rate after treatment, 360' (normotensive rats): -5 b/min; Change in Blood Pressure after Treatment, 24h (normotensive rats): +5 mm Hg; Change in heart rate after treatment, 24h (normotensive rats): 0 b/min; LD50 at 168 h [2]: 500 mg/kg

Reference: patent US4321381A, “Ergot derivatives” (Farmitalia Carlo Erba S.p.A., priority 1978, dated 1982)
